# Source: patent US20180193294A1, “Dehydroabietic acid (DHAA) derivatives for use as ion channel openers” (priority 2015, published 2018)
# Columns and labels:
# WT Shaker K channel = WT Shaker K channel (Drosophila melanogaster, UniProt P08510, DEL6-46); assay: physchem; format: cell-based; conditions: for pKa: Drosophila melanogaster, from pH dependence of G(V) shift
# Text: A Shaker K channel is a Kv channel from the fruit fly Drosophila melanogaster. It is homologous to the human Kv1-type ion channels.
# All animal experiments were approved by the local Animal Care and Use Committee and followed international guidelines. A modified Shaker H4 channel^30, with removed N-type inactivation (ShH4IR)^31, here called the wild type (WT) channel, was expressed in oocytes. In addition, a modified 3R Shaker K channel where two introduced positive charged arginines (M356R and A359R) in addition to one native arginine (R362) makes the channel more sensitive to DHA^16, was expressed in oocytes and in a CHO—K1 stable cell line.
# African clawed frogs (Xenopus laevis) were anesthetized with 1.4 g/L ethyl 3-aminobenzoate methanesulfonate salt (tricaine). After an incision through the abdomen a batch of oocytes were removed. Clusters of oocytes were separated by incubation for ˜1 h in a Ca-free O—R2 solution (in mM: 82.5 NaCl, 2 KCl, 5 HEPES, and 1 MgCl2; pH adjusted to 7.4 by NaOH) containing Liberase Blendzyme. The oocytes were then incubated at 8° C. in a modified Barth's solution (MBS; in mM: 88 NaCl, 1 KCl, 2.4 NaHCO3, 15 HEPES, 0.33 Ca(NO3)2, 0.41 CaCl2, and 0.82 MgSO4; pH adjusted to 7.6 by NaOH) supplemented with penicillin (25 U/ml), streptomycin (25 μg/ml), and sodium pyruvate (2.5 mM) 2-24 hours before injection. Fifty nl of cRNA (50 pg) were injected into each oocyte using a Nanoject injector (Drummond Scientific, Broomall, Pa.). Injected oocytes were kept at 8° C. in MBS until one day before electrophysiological recordings, when they were incubated at 16° C. All chemicals were supplied from Sigma-Aldrich (Stockholm, Sweden) if not stated otherwise.
# (§1) All manual electrophysiological recordings were performed at room temperature (20-23° C.), using a GeneClamp 500B amplifier (for oocytes) or a Axopatch 200B amplifier (for manual patch clamp of CHO—K1 cells and DRG neurons) and a Digidata 1440A digitizer and pClamp 10 software (all from Molecular Devices, Inc., Sunnyvale, Calif., USA). Compounds were dissolved to 100 mM in 99.5% EtOH and stored at −20° C. Compounds were diluted in extracellular solution to the desired test concentration.
# The oocyte was placed in a bath surrounded by 1K extracellular solution that contained (in mM): 88 NaCl, 1 KCl, 15 HEPES, 0.4 CaCl2, and 0.8 MgCl2, pH adjusted to 7.4 by NaOH (reaching a sodium concentration of ˜100 mM). Control solution was added to the bath with a gravity driven perfusion system. Compound solution was added to the bath manually with a syringe. Two glass microelectrodes were inserted into the oocyte using micromanipulators. […] All channels were closed when the potential was clamped to −80 mV and this voltage was set as the holding potential. Currents were evoked from the holding potential of −80 mV by 100-ms long, 5-mV steps ranging from −80 up to +50 mV (WT) and +70 mV (3R).
# Conductance GK(V) was calculated as GK(V)=[…], (Eq. 1) where IK is the average current from the steady-state phase at the end of each 100-ms pulse, V is the membrane voltage, and Vrev is the reversal potential for K^+, (set to −80 mV for the oocytes, and calculated to be −89 mV for the CHO—K1 cells).
# G(V)=A/(1+exp((V1/2−V)/s))^n (Eq. 2) where A is amplitude of the curve, V is the absolute membrane voltage, V1/2 is the midpoint, s is the slope and n is an exponent set to 4^17. The compound-induced G(V) shift was determined at the 10% level of the maximum conductance in control solution^17. The compound-induced G(V) shift in CHO—K1 was quantified by subtracting the control V1/2 from the compound V1/2 when n was set to 1.
# Data for concentration and pH dependent G(V) shifts (ΔV) in oocytes were fit with a dose-response equation ΔV=ΔVmax/(1+c1/2/c), (Eq. 3) where Δvmax is the maximal shift, c1/2 is half maximal effective concentration/pKa value and c is the concentration.
# [1] = test system: dorsal root ganglion (DRG) neurons; assay: Resting membrane potential of DRG neurons, whole-cell current clamp; format: cell-based, mice; conditions: 10 μM, pH 7.4, 120 s application
# Description: (§2) All animal experiments were approved by the local Animal Care and Use Committee and followed international guidelines. Five female 7-12 week-old C57BL/6 mice (Scanbur) were used for this study. The mice were anaesthetized with isoflurane and decapitated. Dorsal root ganglia (DRG) were dissected from all spinal levels and enzymatically digested with collagenase (250 CDU/ml) for 15 min, and then trypsin (1 mg/ml) was added for another 30 min. The ganglia were centrifuged and resuspended in Leibovitz L-15 media with glutamine, supplemented with 10% fetal calf serum, 38 mM glucose, 24 mM NaHCO3 and penicillin/streptomycin. The ganglia were triturated and the DRG neurons plated on poly-D-lysine coated plastic coverslips. The neurons were cultured at 37° C. with 5% CO2 for 2-3 days before the electrophysiological recordings.
# as §1
# (§3) CHO—K1 Cells were plated on coverslips 2 h before the manual electrophysiological recordings. Coverslips with CHO—K1 cells or DRG neurons were placed in a recording chamber and perfused with extracellular solution by a gravity-fed perfusion system. Substances were applied by a pressurized, automated OctaFlow perfusion system (ALA Scientific Instruments). The signals were sampled at 5-20 kHz after low-pass filtering at 2-5 kHz. For CHO—K1 cells the intracellular solution contained (in mM): 120 K-gluconate, 10 KCl, 5 EGTA, 10 HEPES, 4 Mg-ATP, 0.3 Na-GTP, pH 7.3; the extracellular solution contained (in mM): 135 NaCl, 4 KCl, 10 HEPES, 1 MgCl2, 1.8 CaCl2, 10 glucose, pH 7.4. Currents were evoked in CHO—K1 cells in whole-cell voltage-clamp mode from a holding potential of −80 mV by 100-ms long, 10-mV steps ranging from −80 to +80 mV.
# (§4) For DRG neurons the intracellular solution contained (in mM): 120 K-gluconate, 10 KCl, 1 EGTA, 10 HEPES, 4 Mg-ATP, 0.3 Na-GTP, pH 7.3; the extracellular solution contained (in mM): 144 NaCl, 2.5 KCl, 10 HEPES, 0.5 MgCl2, 2 CaCl2, 10 glucose, pH 7.4. A liquid-junction potential of approximately −14 mV was corrected for. […] Small and medium sized DRG neurons were selected for whole-cell current-clamp recording. 10 μM of the compounds were applied for 120 s to study the effect on the resting membrane potential, and for 45-120 s to study the effects on evoked action potentials. To evoke action potentials 800-ms depolarizing pulses
# The compound effect on the resting membrane potential Vm was determined by subtracting the control pre-compound Vm from the Vm at the end of the 120 s application of test compound.
# [2] = test system: dorsal root ganglion (DRG) neurons; assay: Evoked action potentials (excitability) of DRG neurons, current clamp; format: cell-based, mice; conditions: 10 μM; for effect on the after hyperpolarization: cell with single action potential; for effect on resting potential, cell with single action potential: constant current pulse; for effect on train of action potentials: continuous pulse
# Description: as §2, §1, §3, §4
# WT Shaker K channel, sequence (P08510 other isoform, or with tags, fused parts or gaps DEL6-46): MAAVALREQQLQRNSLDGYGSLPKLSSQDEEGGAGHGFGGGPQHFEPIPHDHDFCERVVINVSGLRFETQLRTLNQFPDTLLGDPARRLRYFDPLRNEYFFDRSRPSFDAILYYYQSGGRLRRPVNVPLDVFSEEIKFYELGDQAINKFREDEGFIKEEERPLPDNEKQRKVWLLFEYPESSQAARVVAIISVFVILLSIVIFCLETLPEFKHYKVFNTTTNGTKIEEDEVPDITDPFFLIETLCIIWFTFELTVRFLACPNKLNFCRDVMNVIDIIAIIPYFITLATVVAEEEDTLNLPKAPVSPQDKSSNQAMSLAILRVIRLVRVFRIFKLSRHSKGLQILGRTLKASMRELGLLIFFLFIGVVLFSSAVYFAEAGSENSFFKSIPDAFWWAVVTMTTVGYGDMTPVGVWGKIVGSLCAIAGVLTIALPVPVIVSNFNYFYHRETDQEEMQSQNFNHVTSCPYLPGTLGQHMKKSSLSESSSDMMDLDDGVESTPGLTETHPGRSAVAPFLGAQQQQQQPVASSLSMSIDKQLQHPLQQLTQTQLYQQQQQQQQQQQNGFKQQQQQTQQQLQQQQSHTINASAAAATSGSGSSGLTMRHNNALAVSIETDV
Structure (SMILES),pKa (WT Shaker K channel; 100 μM),shift of the resting membrane potential (ΔVm) [1],effect on the after hyperpolarization [2],"effect on resting potential, cell with single action potential [2]",effect on train of action potentials [2],"G(V) shift for WT relative to 100 μM DHAA (WT Shaker K channel; 100 μM, pH 7.4) [times]","G(V) shift for WT (WT Shaker K channel; 100 μM, pH 7.4, Xenopus oocytes) [mV]",current amplitude increase compared to DHAA (WT Shaker K channel; WT channel at pH 7.4) [times],"current amplitude increase compared to DHA (A=exp(−ΔV/4.7)) (WT Shaker K channel; WT, 100 μM, pH 7.4) [times]"
"CO/N=C1\CC2[C@](C)(C(=O)O)CCC[C@]2(C)c2cc(Br)c(C(C)C)cc21 (stereo partly drawn) [Wu32, (1R,4aS,E)-6-bromo-7-isopropyl-9-(methoxyimino)-1,4a-dimethyl-1,2,3,4,4a,9,10,10a-octahydrophenanthrene-1-carboxylic acid]",6.1,intermediately potent hyperpolarizers,–,–,–,–,–,–,–
CC(C)c1ccc2c(c1)C(C(=O)O)CC1[C@](C)(C(=O)O)CCC[C@]21C (some centres unmarked) [Wu35],–,−1.1±0.4,only a very small effect,almost no effect,almost no effect on the same cell,–,–,–,–
"C[C@@]1(C(=O)O)CCC[C@]2(C)c3cc(Cl)c(Cl)c(Cl)c3CCC12 (stereo partly drawn) [Wu50, (1R,4aS)-6,7,8-trichloro-1,4a-dimethyl-1,2,3,4,4a,9,10,10a-octahydrophenanthrene-1-carboxylic acid]",6.8,–,pronounced effect,made the resting potential more negative,completely abolished all action potentials,~10,−21.2,56,25
